Assay results from ChEMBL document CHEMBL5506057, “Discovery and Optimization of Potent, Efficacious and Selective Inhibitors Targeting EGFR Exon20 Insertion Mutations” (J Med Chem, 2024).

Tests used:
[1] = Lipophilicity, logD of compound in octanol and aqueous buffer at pH 7.4 incubated for 2 hrs by shake-flask method based LC-MS/MS analysis; type: physicochemical
[2] = target: Epidermal growth factor receptor (Homo sapiens, UniProt P00533, D770-N771INSNPG); assay: Inhibition of 6His-tagged TEV-GS fused EGFR D770_N771insNPG mutant (G696 to G1210 reisudes) (unknown origin) expressed in Sf21 cells using Poly(Glu,Tyr) peptide as substrate preincubated for 15 mins followed by substrate addition and measured after 30 mins in presence of ATP by ADP-Glo reagent based assay
Sequence of Epidermal growth factor receptor (Homo sapiens, UniProt P00533, D770-N771INSNPG) (P00533 whole entry, looked up, stated change not applied, the tested form may be a part): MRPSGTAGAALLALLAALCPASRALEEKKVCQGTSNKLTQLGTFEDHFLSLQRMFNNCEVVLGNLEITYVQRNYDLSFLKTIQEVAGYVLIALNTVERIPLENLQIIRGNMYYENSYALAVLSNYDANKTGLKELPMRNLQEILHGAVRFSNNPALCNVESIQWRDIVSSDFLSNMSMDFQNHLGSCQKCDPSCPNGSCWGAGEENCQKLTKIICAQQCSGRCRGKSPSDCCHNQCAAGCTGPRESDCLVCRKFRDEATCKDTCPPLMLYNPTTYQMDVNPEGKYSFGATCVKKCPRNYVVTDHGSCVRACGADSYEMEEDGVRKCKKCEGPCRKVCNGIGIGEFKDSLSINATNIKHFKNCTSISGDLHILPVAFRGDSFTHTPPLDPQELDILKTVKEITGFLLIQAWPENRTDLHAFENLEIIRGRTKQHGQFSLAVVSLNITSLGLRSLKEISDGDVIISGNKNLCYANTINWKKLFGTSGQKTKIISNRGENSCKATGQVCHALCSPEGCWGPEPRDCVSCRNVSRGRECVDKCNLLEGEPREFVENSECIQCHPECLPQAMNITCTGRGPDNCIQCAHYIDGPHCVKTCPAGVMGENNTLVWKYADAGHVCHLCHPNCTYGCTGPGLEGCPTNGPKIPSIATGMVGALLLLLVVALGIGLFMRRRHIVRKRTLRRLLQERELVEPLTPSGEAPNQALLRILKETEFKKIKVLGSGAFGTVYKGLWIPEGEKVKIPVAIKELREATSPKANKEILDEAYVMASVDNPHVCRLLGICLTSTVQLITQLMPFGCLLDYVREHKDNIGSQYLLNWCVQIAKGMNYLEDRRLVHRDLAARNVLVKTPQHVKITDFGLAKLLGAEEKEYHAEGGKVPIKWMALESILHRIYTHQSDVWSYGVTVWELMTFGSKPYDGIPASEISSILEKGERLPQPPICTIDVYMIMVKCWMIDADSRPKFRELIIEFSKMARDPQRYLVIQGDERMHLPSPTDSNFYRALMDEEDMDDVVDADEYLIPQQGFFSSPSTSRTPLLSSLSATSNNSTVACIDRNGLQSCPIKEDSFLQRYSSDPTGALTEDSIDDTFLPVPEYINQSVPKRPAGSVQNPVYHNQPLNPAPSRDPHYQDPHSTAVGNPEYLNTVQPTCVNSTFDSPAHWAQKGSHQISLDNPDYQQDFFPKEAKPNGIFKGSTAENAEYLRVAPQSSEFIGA

[3] = Selectivity ratio of IC50 for inhibition of recombinant wildtype human N-terminal GST-tagged EGFR cytoplasmic domain (669 to 1210 residues) expressed in Sf21 insect cells to IC50 for inhibition of 6His-tagged TEV-GS fused EGFR D770_N771insNPG mutant (G696 to G1210 reisudes) (unknown origin) expressed in Sf21 cells
[4] = target: T1, Epidermal growth factor receptor (Homo sapiens, UniProt P00533); assay: Inhibition of recombinant wildtype human N-terminal GST-tagged EGFR cytoplasmic domain (669 to 1210 residues) expressed in Sf21 insect cells using Poly(Glu,Tyr) peptide as substrate preincubated for 15 mins followed by substrate addition and measured after 50 mins in presence of ATP by ADP-Glo reagent based assay
T1 sequence (P00533 whole entry, the tested form may be a part): as the sequence (P00533 whole entry, looked up, stated change not applied, the tested form may be a part) above

[5] = Metabolic stability in human liver microsomes assessed as intrinsic clearance at 1 uM incubated for 30 mins in presence of NADPH by LC-MS/MS analysis; type: ADME, Microsome; conditions: read-out: CLH
[6] = Metabolic stability in rat hepatocytes assessed as intrinsic clearance measured per 10^6 cells at 1 uM incubated for 120 mins by LC-MS/MS analysis; type: ADME, cell-based, Hepatocyte; conditions: read-out: CLH
[7] = GSH reactivity of compound in phosphate buffer assessed as half-life at pH 7.4 at 1 uM by LC-MS/MS analysis; type: physicochemical; conditions: phosphate buffer with GSH
[8] = Intrinsic permeability in human Caco-2 cells at 10 uM; type: ADME, cell-based; conditions: read-out: permeability
[9] = target: T2, Epidermal growth factor receptor (Homo sapiens, UniProt P00533, D770-N771INSSVD); assay: Inhibition of EGFR D770_N771insSVD mutant (unknown origin) phosphorylation transfected in human NCI-H2073 cells incubated for 2 hrs by HTRF assay; type: cell-based
T2 sequence (P00533 whole entry, looked up, stated change not applied): as the sequence (P00533 whole entry, looked up, stated change not applied, the tested form may be a part) above

[10] = Selectivity ratio of IC50 for inhibition of wildtype EGFR (unknown origin) transfected in human NCI-H2073 cells preincubated for 2 hrs followed by EGF stimulation for 10 mins by ELISA to IC50 for inhibition of EGFR D770_N771insSVD mutant (unknown origin) transfected in human NCI-H2073 cells incubated for 2 hrs by ELISA; type: cell-based
[11] = target: T1, Epidermal growth factor receptor; assay: Inhibition of wildtype EGFR (unknown origin) phosphorylation transfected in human NCI-H2073 cells preincubated for 2 hrs followed by EGF stimulation for 10 mins by ELISA; type: cell-based
[12] = target: T2, Epidermal growth factor receptor; assay: Inhibition of EGFR D770_N771insSVD mutant (unknown origin) phosphorylation transfected in human NCI-H2073 cells incubated for 2 hrs by ELISA; type: cell-based
[13] = target: T1, Epidermal growth factor receptor; assay: Inhibition of wildtype EGFR (unknown origin) phosphorylation transfected in human NCI-H2073 cells preincubated for 2 hrs followed by EGF stimulation for 10 mins by HTRF assay; type: cell-based
[14] = Selectivity ratio of IC50 for inhibition of wildtype EGFR (unknown origin) transfected in human NCI-H2073 cells preincubated for 2 hrs followed by EGF stimulation for 10 mins by HTRF assay to IC50 for inhibition of EGFR D770_N771insSVD mutant (unknown origin) transfected in human NCI-H2073 cells incubated for 2 hrs by HTRF assay; type: cell-based
[15] = Selectivity ratio of Ki/Kinact for inhibition of EGFR D770_N771insNPG mutant (unknown origin) using AQT0099 as substrate to Ki/Kinact for inhibition of wildtype EGFR (unknown origin) using AQT0099 as substrate
[16] = Metabolic stability in CD-1 mouse hepatocytes assessed as intrinsic clearance measured per 10^6 cells at 1 uM incubated for 120 mins by LC-MS/MS analysis; type: ADME, cell-based, Hepatocyte; conditions: read-out: CLH
[17] = Duration (time) of SCID mouse free plasma concentration cover over EGFR insSVD cell IC50 at 50 mg/kg, po; type: ADME, organism-based; conditions: in vivo

SMILES | logD at 2 h [1] | microsomal CLint at 1 µM [5] [µL/min/mg] | hepatocyte CLint at 1 µM [6] [µL/min/1e6 cells] | other results
CN1Cc2cc(COc3cccc(-c4n[nH]cc4-c4ccncc4)c3)ccc2C1=O | 3.1 | 77 |  | IC50 [2]: 150 nM; Ratio IC50 [3]: > 50; IC50 [4]: > 7400 nM
C=CC(=O)N1CC[C@H](n2cc(-c3ccncc3)c(-c3cc(OCc4ccc5c(c4)CN(C)C5=O)ccc3F)n2)C1 | 2.7 | > 300 |  | 
C=CC(=O)N1C[C@@H](n2cc(-c3ccncc3)c(-c3cc(COc4ccc5c(c4)CN(C)C5=O)ccc3F)n2)C[C@H]1C | 3.3 | > 300 | 55 | 
C=CC(=O)NCCn1cc(-c2ncnc3cc(OC)c(OC)cc23)c(-c2cccc(OC)c2)n1 | 2.4 | 116 |  | half-life at 1 µM [7]: 49.3 h
C=CC(=O)N1C[C@@H](n2cc(-c3ccncc3)c(-c3cccc(OCc4ccc5c(c4)CN(C)C5=O)c3)n2)C[C@@H]1C | 3 | > 300 |  | 
C=CC(=O)N1CC[C@H](n2cc(-c3ccncc3)c(-c3cccc(/C=C/c4cc5n(n4)CCOC5)c3)n2)C1 | 3.5 | 167 | 62 | 
C=CC(=O)N1CC[C@H](n2cc(-c3ccncn3)c(-c3cccc(/C=C/c4ncc(C5CC5)o4)c3)n2)C1 | 3.7 | 202 | 67 | 
C=CS(=O)(=O)NCCn1cc(-c2ncnc3cc(OC)c(OC)cc23)c(-c2cccc(OC)c2)n1 | 2.2 | 192 |  | half-life at 1 µM [7]: 1.15 h
C=CC(=O)N1CC[C@H](n2cc(-c3ccncc3)c(-c3cccc(NC(=O)c4ccc5c(c4)CN(C)C5=O)c3)n2)C1 | 2.2 | 58 | 21 | Papp at 10 µM [8]: < 0.36 ×10⁻⁶ cm/s
C=CC(=O)N1CC[C@H](n2cc(-c3ccncc3)c(-c3cccc(COc4ccc5c(c4)CN(C)C5=O)c3)n2)C1 | 3 | > 300 | 128 | 
C=CC(=O)Nc1ccc(OC)c(Nc2cc(-c3c[nH]nc3-c3cccc(OCc4ccc5c(c4)CN(C)C5=O)c3)ccn2)c1 | 3.9 | > 300 |  | Papp at 10 µM [8]: 7.5 ×10⁻⁶ cm/s
Fc1ccccc1COc1cccc(-c2n[nH]cc2-c2ccncc2)c1 | > 4.9 | 226 |  | 
C=CC(=O)Nc1cc(Nc2ncc(C(=O)OC(C)C)c(-c3cn(C)c4ccccc34)n2)c(OC)cc1N(C)CCN(C)C [MOBOCERTINIB] |  |  |  | IC50 [9]: 34 nM; Ratio IC50 [10]: 1.4; IC50 [11]: 30 nM; IC50 [12]: 22 nM; IC50 [13]: 37 nM; IC50 [2]: < 3 nM; Ratio IC50 [3]: > 0.4; IC50 [4]: 1 nM; Ratio IC50 [14]: 1.1; Selectivity ratio [15]: 0.63
C=CC(=O)N1CC[C@H](n2cc(-c3ccncc3)c(-c3cccc(NC(=O)c4cccc(OC)c4F)c3)n2)C1 | 2.9 | 175 | 51 | Papp at 10 µM [8]: 42 ×10⁻⁶ cm/s
C=CC(=O)N1CC[C@H](n2cc(-c3ncnc4cc(OC)c(OC)cc34)c(-c3cccc(OC)c3)n2)C1 | 2.4 | 157 |  | 
C=CC(=O)N1CC[C@H](n2cc(-c3ccncc3)c(-c3cccc(NC(=O)c4cn(C5CC5)cn4)c3)n2)C1 | 2.5 | 64 | 38 | hepatocyte CLint at 1 µM [16]: 42 µL/min/1e6 cells; Time [17]: 1 h
C=CC(=O)N1C[C@@H](n2cc(-c3ccncc3)c(-c3ccc(F)c(COc4ccc5c(c4)CN(C)C5=O)c3)n2)C[C@H]1C | 3.6 | > 300 | 173 | 
C=CC(=O)N1C[C@@H](n2cc(-c3ccncc3)c(-c3cccc(COc4ccc5c(c4)CN(C)C5=O)c3)n2)C[C@H]1C | 3.4 | > 300 | 58 | hepatocyte CLint at 1 µM [16]: 30 µL/min/1e6 cells; Time [17]: 3 h
C=CC(=O)N1CC[C@@H](n2cc(-c3ncnc4cc(OC)c(OC)cc34)c(-c3cccc(OC)c3)n2)C1 | 2.4 | 135 |  | 
C=CC(=O)N1CC[C@H](n2cc(-c3ccncc3)c(-c3cccc(NC(=O)c4ncc(C5CC5)o4)c3)n2)C1 | 3.1 | 166 | 187 | Papp at 10 µM [8]: 30 ×10⁻⁶ cm/s
C#CC(=O)NCCn1cc(-c2ncnc3cc(OC)c(OC)cc23)c(-c2cccc(OC)c2)n1 | 2.1 | 105 |  | half-life at 1 µM [7]: 0.917 h
COc1cc2ncnc(-c3c[nH]nc3-c3cccc(OCc4ccc5c(c4)CN(C)C5=O)c3)c2cc1OC |  | > 300 |  | 
C=CC(=O)N1CC[C@H](n2cc(-c3ccncc3)c(-c3cc(F)cc(OCc4ccc5c(c4)CN(C)C5=O)c3)n2)C1 | 3.3 | > 300 |  | IC50 [9]: 540 nM; IC50 [13]: > 28000 nM; Ratio IC50 [14]: > 52
Fc1ccccc1COc1cccc(-c2n[nH]cc2-c2ccncn2)c1 | 3.5 | 117 |  | 
C=CC(=O)N1CC(n2cc(-c3ccncc3)c(-c3cccc(/C=C/c4ncc(C5CC5)o4)c3)n2)C1 | 4.4 | 51 | 48 | hepatocyte CLint at 1 µM [16]: 64 µL/min/1e6 cells
C=CC(=O)N1CC[C@H](n2cc(-c3ccncc3)c(-c3cccc(OCc4ccc5c(c4)CN(C)C5=O)c3)n2)C1 | 2.6 | > 264 |  | hepatocyte CLint at 1 µM [16]: 64 µL/min/1e6 cells
C=CC(=O)N1C[C@@H](n2cc(-c3ccncc3)c(-c3cccc(OCc4ccc5c(c4)CN(C)C5=O)c3)n2)C[C@H]1C | 3.2 | > 300 |  | 
C=CC(=O)Nc1ccc(OC)c(Nc2nccc(-c3c[nH]nc3-c3cccc(OC)c3)n2)c1 | 4.1 | 46 |  | half-life at 1 µM [7]: 5.35 h; Papp at 10 µM [8]: 64 ×10⁻⁶ cm/s
C=CC(=O)N1CC(n2cc(-c3ccncc3)c(-c3cccc(NC(=O)c4cn(C5CC5)cn4)c3)n2)C1 | 2.2 | 19 | 58 | hepatocyte CLint at 1 µM [16]: 150 µL/min/1e6 cells
C=CC(=O)N1CC(Oc2cc3c(-c4c[nH]nc4-c4cccc(OC)c4)ncnc3cc2OC)C1 | 2 | 33 |  | 
